Values after ≈ are worked out from the molar mass of the structure shown. Active and inactive are the calls of the source. The rule behind the calls is not given here.
Key:
[1] = Antioxidant activity assessed as DPPH radical scavenging activity after 30 mins; assay type: physicochemical
[2] = Antioxidant activity assessed as ABTS radical scavenging activity after 6 mins; assay type: physicochemical
[3] = Antioxidant activity assessed as reduction of Fe3+ to Fe2+ after 20 mins; assay type: physicochemical
[4] = Cytotoxicity against rat PC12 cells assessed as cell viability at 150 uM after 24 hrs by MTT assay relative to control; assay type: cell-based; conditions: pc-12, 24 h
[5] = Cytotoxicity against rat PC12 cells assessed as cell viability at 75 uM after 24 hrs by MTT assay relative to control; assay type: cell-based; conditions: pc-12, 24 h
[6] = (§1) Neuroprotective activity against amyloid beta (25 to 35)-induced toxicity in rat PC12 cells assessed as increase in cell viability at 30 uM after 24 hrs by MTT assay relative to control; assay type: functional, PC-12
PC-12 [7] = test: Neuroprotective activity against amyloid beta (25 to 35)-induced toxicity in rat PC12 cells assessed as increase in cell viability after 24 hrs by MTT assay; assay type: functional, cell-based
[8] = Cytotoxicity against rat PC12 cells assessed as cell viability at 30 uM after 24 hrs by MTT assay; assay type: cell-based; conditions: pc-12, 24 h
[9] = (§2) Neuroprotective activity against amyloid beta (25 to 35)-induced toxicity in rat PC12 cells assessed as increase in cell viability at 75 uM after 24 hrs by MTT assay relative to control; assay type: functional, PC-12
PC-12 [10] = test: as §1; assay type: functional
PC-12 [11] = test: as §2; assay type: functional

SMILES	IC50 [1]	IC50 [2]	IC50 [3]	Activity [4]	Activity [5]	Activity [6]	Activity (PC-12 [7])	Activity [8]	Activity [9]	Activity (PC-12 [10])	Activity (PC-12 [11])
O=C(O)CC(=O)OC[C@H]1O[C@@H](Oc2ccc3c(c2)OCC2c4cc5c(cc4OC32)OCO5)[C@H](O)[C@@H](O)[C@@H]1O (some centres undefined)	25.93 mg/L (≈ 48.7 µM)	60.64 mg/L (≈ 114 µM)	64.31 mg/L (≈ 121 µM)								
COc1ccc(-c2coc3cc(O[C@@H]4O[C@H](CO)[C@@H](O)[C@H](O)[C@H]4O)ccc3c2=O)cc1 [ONONIN]	34.17 mg/L (≈ 79.4 µM)	71.3 mg/L (≈ 166 µM)	57.21 mg/L (≈ 133 µM)								
O=c1c(O)c(-c2ccc(O)c(O)c2)oc2cc(O)cc(O)c12 [QUERCETIN]	4.89 mg/L (≈ 16.2 µM)	6.94 mg/L (≈ 23 µM)									
COc1ccc(C2=CC(=O)OC2Cc2ccc(O)cc2)c(O[C@@H]2O[C@H](CO)[C@@H](O)[C@H](O)[C@H]2O)c1 (some centres undefined)	25.67 mg/L (≈ 54.1 µM)	61.39 mg/L (≈ 129 µM)	46.93 mg/L (≈ 98.9 µM)	Toxic	Toxic			Non-toxic		inactive	
COc1ccc2c(c1)O[C@H]1c3ccc(O)cc3OC[C@@H]21	45.91 mg/L (≈ 170 µM)	86.29 mg/L (≈ 319 µM)	82.37 mg/L (≈ 305 µM)	Toxic	Non-toxic	18%	Dose-dependent effect	Non-toxic	30%		

Further lines, with some results ahead:

IC50 [1]	IC50 [2]	IC50 [3]	SMILES	Activity [4]	Activity [5]	Activity [6]	Activity (PC-12 [7])	Activity [8]	Activity [9]	Activity (PC-12 [10])	Activity (PC-12 [11])
24.48 mg/L (≈ 86.1 µM)			Oc1ccc2c(c1)OC[C@H]1c3cc4c(cc3O[C@@H]21)OCO4 [MAACKIAIN]	Toxic	Non-toxic	5%	Dose-dependent effect	Non-toxic	15%		
21.43 mg/L (≈ 46.5 µM)	46.72 mg/L (≈ 101 µM)	39.81 mg/L (≈ 86.5 µM)	O=C1C=C(c2ccc(O)cc2O[C@@H]2O[C@H](CO)[C@@H](O)[C@H](O)[C@H]2O)C(Cc2ccc(O)cc2)O1 (some centres undefined)	Toxic	Non-toxic			Non-toxic		inactive	inactive
20.45 mg/L (≈ 44.2 µM)			COc1cc(O[C@@H]2O[C@H](CO)[C@@H](O)[C@H](O)[C@H]2O)c(O)cc1-c1coc2cc(O)ccc2c1=O								
28.06 mg/L (≈ 62.9 µM)	63.21 mg/L (≈ 142 µM)	70.37 mg/L (≈ 158 µM)	OC[C@H]1O[C@@H](Oc2ccc3c(c2)OCC2c4cc5c(cc4OC32)OCO5)[C@H](O)[C@@H](O)[C@@H]1O (some centres undefined)	Toxic	Toxic			Non-toxic		inactive	
43.51 mg/L (≈ 162 µM)	77.42 mg/L (≈ 289 µM)	62.57 mg/L (≈ 233 µM)	COc1ccc(-c2coc3cc(O)ccc3c2=O)cc1 [FORMONONETIN]								
9.23 mg/L (≈ 41.9 µM)		41.64 mg/L (≈ 189 µM)	Cc1cc(C(C)(C)C)c(O)c(C(C)(C)C)c1 [BUTYLATED HYDROXYTOLUENE]								
19.53 mg/L (≈ 65.5 µM)	28.29 mg/L (≈ 94.8 µM)	38.52 mg/L (≈ 129 µM)	O=C1C=C(c2ccc(O)cc2O)C(Cc2ccc(O)cc2)O1 (centres undefined)	Toxic	Toxic			Non-toxic		inactive	

Source: ChEMBL document CHEMBL3608220, “Isolation and structure elucidation of bioactive compounds from the roots of the Tunisian Ononis angustissima L” (Bioorg Med Chem Lett, 2015)
